Columns and labels:
TOP1cc = biological target: T1, TOP1cc (Homo sapiens, UniProt P11387); assay: Slot blot analysis of TOP1cc levels in purified CCF of senescent cells; format: cell-based; design: endogenous in cells; host or cells: IMR90 human fibroblasts (senescent or proliferating, with or without shHMGB2); OVCAR3 (with or without HMGB2 knockout); conditions: CCF isolated from HMGB2 knockdown or knockout senescent cells (IMR90, OVCAR3)
T1 sequence (P11387 1-765): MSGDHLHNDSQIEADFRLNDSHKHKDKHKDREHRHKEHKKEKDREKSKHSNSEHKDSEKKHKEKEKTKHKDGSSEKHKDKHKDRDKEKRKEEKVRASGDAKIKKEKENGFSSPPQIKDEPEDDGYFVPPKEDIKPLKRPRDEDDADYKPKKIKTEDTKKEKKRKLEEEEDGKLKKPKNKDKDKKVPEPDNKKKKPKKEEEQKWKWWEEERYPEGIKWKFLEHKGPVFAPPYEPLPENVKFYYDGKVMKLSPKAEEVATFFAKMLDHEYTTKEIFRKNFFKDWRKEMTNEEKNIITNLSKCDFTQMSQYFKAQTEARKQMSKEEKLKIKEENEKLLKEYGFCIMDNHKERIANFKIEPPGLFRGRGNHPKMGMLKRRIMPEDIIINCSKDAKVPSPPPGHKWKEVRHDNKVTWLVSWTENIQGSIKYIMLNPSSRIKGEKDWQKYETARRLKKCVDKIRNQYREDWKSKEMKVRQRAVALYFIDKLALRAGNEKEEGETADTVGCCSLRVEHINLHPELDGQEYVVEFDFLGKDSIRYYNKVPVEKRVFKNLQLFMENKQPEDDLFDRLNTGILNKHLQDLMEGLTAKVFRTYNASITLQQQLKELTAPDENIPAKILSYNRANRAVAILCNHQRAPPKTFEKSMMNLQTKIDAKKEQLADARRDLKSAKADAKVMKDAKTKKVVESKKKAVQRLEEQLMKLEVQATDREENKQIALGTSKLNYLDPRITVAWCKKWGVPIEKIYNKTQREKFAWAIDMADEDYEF
Procedure: A CCF purification protocol was developed by modifying previous protocols (Shimizu et al., 1996; Ly et al., 2017). Briefly, 500 million senescent cells were collected, resuspended, and incubated in DMEM containing 10 μg/mL cytochalasin B for 30 minutes at 37° C. After wash once with ice-cold PBS, the cell pellet was gently dounce homogenized in ice-cold pre-chilled lysis buffer (10 mM Tris-HCl, 2 mM magnesium acetate, 3 mM CaCl2), 0.32 M sucrose, 0.1 mM EDTA, 1 mM DTT, 0.1% NP-40, 0.15 mM spermine, 0.75 mM spermidine, 10 μg/ml cytochalasin B, pH 8.5, 4° C.) with ten slow strokes of a loose-fitting pestle. Release of nuclei was confirmed by DAPI-staining and microscopy. The homogenate was fixed with 1% formaldehyde for 10 minutes, and mixed well with an equal volume of 1.6M sucrose buffer (10 mM Tris-HCl, 5 mM magnesium acetate, 0.1 mM EDTA, 1 mM DTT, 0.3% BSA, 0.15 mM spermine, 0.75 mM spermidine, pH 8.0, 4° C.). A 10 mL portion of homogenate was layered on the top of sucrose buffer gradient (20 mL and 15 mL containing 1.8M and 1.6M of sucrose, respectively) in a 50 mL tissue culture tube. The tubes were centrifuged at 1200×g for 20 minutes at 4° C. After centrifugation, the upper 3 mL of the gradient was discarded, and the next 15 mL containing CCFs was collected. […] DNA concentration was measured using Nanodrop and 5 μg DNA was used for slot blot analysis.

cGAS = cGAS localization into CCF by immunofluorescence; format: cell-based, human; conditions: HMGB2 knockout cells
Procedure: Cells were fixed with 4% paraformaldehyde (PFA) for 15 mins at room temperature followed by permeabilization with 0.2% Triton X-100 in PBS for 5 min. For DNase I digestion, after fixation and permeabilization, cells were treated with 500 units/mL RNase-Free DNase I (Qiagen, Cat. No: 79254) for one hour at 37° C. After blocking with 1% BSA in PBS, cells were incubated with primary antibody overnight at 4° C. and Alexa-Fluor conjugated secondary antibody (Life Technologies). Fluorescent images were captured using Leica TCS SP5 II scanning confocal microscope.

2′3′-cGAMP = 2′3′-cGAMP ELISA in IMR90 cells; format: cell-based, human; conditions: senescent IMR90 cells with HMGB2 knockdown
Procedure: 2′ 3′-cGAMP ELISA Kit (Cayman chemical. Cat. No:501700) was used to analyze the endogenous level of 2′ 3′-cGAMP following the manufacturer's instructions. 1×10^5 IMR90 cells were incubated in 200 μL lysis buffer (ThermoFisher, Cat. No: 78501) on ice for 30 minutes. The 2′ 3′-cGAMP ELISA was performed following the manufacturer's instructions.

STING = STING dimerization by immunoblot in IMR90 cells; format: cell-based, human; conditions: senescent IMR90 cells with HMGB2 knockdown
Procedure: Cells were lysed in 1× sample buffer (2% SDS, 10% glycerol, 0.01% bromophenol blue, 62.5 mM Tris, pH 6.8, and 0.1 M DTT) and heated to 95° C. for 10 min. Protein concentrations were determined using the protein assay dye (Bio-Rad. Cat. No: #5000006) and Nanodrop. An equal amount of total protein was resolved using SDS-PAGE gels and transferred to PVDF membranes at 110 V for 2 hours at 4° C. Membranes were blocked with 5% nonfat milk in TBS containing 0.1% Tween 20 (TBS-T) for 1 hour at room temperature. Membranes were incubated overnight at 4° C. in the primary antibodies in 4% BSA/TBS+0.025% sodium azide. Membranes were washed four times in TBS-T for 5 min at room temperature, after which they were incubated with HRP-conjugated secondary antibodies (Cell Signaling Technology. Cat. No: 7076S, 7074S) for 1 hour at room temperature. After washing four times in TBS-T for 5 min at room temperature, proteins were visualized on film after incubation with SuperSignal West Pico PLUS Chemiluminescent Substrate (Thermo Fisher Scientific. Cat. No: 34580).

[1] = tested on: ID8-Defb29/Vegf-a ovarian cancer; assay: In vivo orthotopic syngeneic ID8-Defb29/Vegf-a ovarian cancer mouse model
Procedure: For orthotopic syngeneic model, luciferase expressing ID8-Defb29/Vegf-a with inducible shHMGB2 cells were pretreated with 2 μM Cisplatin for 48 hours to induce CCFs. 5×10^6 cells were i.p. injected into the peritoneal cavity of C57BL/6 mouse (female, 6-8 weeks old, CRL/NCI) (Zhu et al., 2016). Animals were randomly assigned to different treatment groups (10 mice/group). The mice in control groups were fed with control rodent diet (Fisher Scientific. Cat. No: 14-726-309). For the HMGB2 knockdown groups, mice were fed with Bio-Serv™ Doxycycline Grain-Based Rodent Diet (Fisher Scientific. Cat. No: 14-727-450) to induce HMGB2 knockdown. Tumor progression was monitored twice a week using a Xenogen IVIS Spectrum in vivo bioluminescence imaging system. Images were analyzed using Live Imaging 4.0 software. Tumor-bearing mice were treated by i.p. injection with isotype control IgG or anti-PD-L1 antibody (Bio X Cell, Cat. No: B7-H1, clone 10 F.9G2, 10 mg kg^-1) every 3 days with or without simultaneous TOP1 inhibitor camptothecin treatment (Selleck Cat. No: S1288; 8 mg kg^-1). For survival analysis, the Wistar Institute IACUC guideline was followed in determining the time for ending the survival experiments (tumor burden exceeds 10% of body weight).

SMILES: CC[C@@]1(O)C(=O)OCc2c1cc1n(c2=O)Cc2cc3ccccc3nc2-1 [CPT, Camptothecin]
- TOP1cc levels in CCF (TOP1cc): restored the TOP1cc levels
- TOP1cc levels in CCF (TOP1cc; listed as Camptothecin): Rescue of the decrease in TOP1cc levels
- localization of cGAS and TOP1cc into CCF (cGAS): rescue of the localization of cGAS and TOP1cc into CCF
- 2′3′-cGAMP levels (2′3′-cGAMP): rescued
- STING dimerization (STING): rescued the suppression of STING dimerization
- anti-PD-L1 treatment response (tumor growth by luciferase bioluminescence) ([1]; HMGB2 knockdown tumors, CPT 8 mg kg-1 i.p. with anti-PD-L1 antibody 10 mg kg-1 every 3 days): significantly restored the anti-PD-L1 response
- body weight of the treated mice ([1]; anti-PD-L1 antibody-treated group, during treatment period): did not affect the body weight
- survival of mice ([1]; mice bearing HMGB2 knockdown tumors, CPT with anti-PD-L1 antibody): rescued the survival
